Measured values taken from patent US20260226493A1, “HERBICIDE RESISTANT PLANTS” (SYNGENTA CROP PROTECTION AG, priority 2023, published 2026).

Key:
Assay in all cases: BioA enzyme activity with DMSO or herbicide in vitro
Assay type in all cases: biochemical
[1] = test system: Streptomyces viridochromogenes BioA; conditions: SAM in substrate mix
Text: (§1) A pet-24 plasmid containing a DNA sequence encoding each identified variant mutant of BIO3-BIO1 derived from Arabidopsis thaliana from example 5 above, as shown in Table 13 below and as shown in full in SEQ ID NOs: 15 to 155, codon-optimised for expression in E. coli, with an N-terminal 6×His-tag and thrombin cleavage site and under control of a T7 promoter, and was synthesised by Twist Bioscience, in a similar manner to SEQ ID NO:311. These plasmids were then expressed in E. coli BL21 (DE3) bioA with 50 μg/mL kanamycin and 25 μg/mL chloramphenicol selection. Overnight cultures grown at 37° C. were used to inoculate 8×500 mL AIM in shake flasks at a ratio of 1:100. Cultures were grown at 37° C., 200 rpm for 3.5 hours and then overnight at 20° C. Cells were harvested by centrifugation for 30 minutes at 10 000 g. Cells were stored at −80° C. until extraction. 30 g of cell pellet from was thawed in 120 mL of IMAC buffer A (20 mM HEPES pH7.5, 25 mM imidazole, 500 mM sodium chloride, 0.15 mM pyridoxal phosphate, 0.5 mM TCEP, 1× complete Protease Inhibitor Tablet (Roche)). The resuspension was passed through a cell disrupter at 18 000 PSI and centrifuged at 50 000 g for 25 minutes at 4° C. The His-tagged BIO3-BIO1 protein was purified from the extract supernatant on an AKTA avant chromatography system (Cytiva) using a HisTrap FF column and eluted in IMAC buffer B ((20 mM HEPES pH7.5, 500 mM imidazole, 500 mM sodium chloride, 0.15 mM pyridoxal phosphate, 0.5 mM TCEP) followed by SEC using a HiLoad 26/60 Superdex200 column in SEC buffer (25 mM HEPES pH7.5, 150 mM sodium chloride, 0.15 mM pyridoxal phosphate, 0.5 mM TCEP). Protein concentration was measured and calculated using the absorbance at 280 nm. Extracts were diluted 1 in 4 and 10 uL was analysed by SDS PAGE.
(§2) To measure BIO3-BIO1 mutant enzyme activity in the presence of herbicide, herbicides were incubated with 20 μL of enzyme mix (100 mM EPPS pH 8.6, 0.1 mM pyridoxal phosphate, 0.1 mg/mL BSA, 50 nM BIO3-BIO1 enzyme) for 10 minutes at 20° C. in a well of a 96-well half-area black plate, followed by the addition of 20 μL of substrate mix (final concentration of 100 mM EPPS pH 8.6, 0.1 mM pyridoxal phosphate, 0.1 mg/mL BSA, 100 μM spermidine, 20 μM KAPA, 100 mM NaCO3) and further incubation for 75 minutes at 20° C. The reaction was terminated by the addition of 50 μL of derivatisation mix (final concentration of 250 mM borate NaOH pH 9.4, 3.6 mM o-phthalaldehyde, 7 mM β-mercaptoethanol, 17% (v/v) ethanol, 3.6% (v/v) methanol). The fluorescent product produced by the reaction of DAPA with o-phthalaldehyde and 7 mM β-mercaptoethanol was measured at 470 nm after excitation at 410 nm. The percentage inhibition was calculated as the activity in the presence of one of three concentrations of each herbicide compound A to M (note that the compounds labelled as A to M are identified hereinabove in the relevant section of the description) as a percentage of the activity in DMSO (Table 12 and 13). The percentage activity versus WT was also calculated and is shown in Table 13 and 14 (NT indicates mutation not tested in table 13, note that these mutations are tested at different compound concentrations for compounds L, M and C, and the results are shown in table 14).
(§3) Protein of Escherichia coli BioA (SEQ ID NO:159), Pantoea ananatis BioA (SEQ ID NO:167), Streptomyces viridochromogenes BioA (SEQ ID NO:170), Cryptosporidium andersoni BioA (SEQ ID NO:160), Stenotrophomonas maltophilia BioA (SEQ ID NO:171), Chroococcidiopsis BioA (SEQ ID NO:184), Pedobacter hartonius BioA (SEQ ID NO:181), Chitinophaga filiformis BioA (SEQ ID NO:180), Tenacibaculum adriaticum BioA (SEQ ID NO:185) and Bacillus subtilis BioA (SEQ ID NO:166) was prepared using the method in Example 6. BioA enzyme activity in the presence of herbicide or DMSO in vitro for each of the proteins was assayed according to the enzyme assay method in Example 6, except in some reactions spermidine was replaced with 2 mM S-Adenosyl methionine.

[2] = test system: Pantoea ananatis BioA; conditions: SAM in substrate mix
Text: as §1, §2, §3

[3] = test system: Stenotrophomonas maltophilia BioA; conditions: spermidine in substrate mix
Text: as §1, §2, §3

[4] = test system: Chitinophaga filiformis BioA; conditions: spermidine in substrate mix
Text: as §1, §2, §3

Structure (SMILES): CCn1c(C)c(-c2cc(OC(F)(F)F)ccc2Cl)c(=O)c(C(=O)O)c1-c1ccc(Cl)c(Cl)c1 [Compound D, 5-[2-chloro-5-(trifluoromethoxy)phenyl]-2-(3,4-dichlorophenyl)-1-ethyl-6-methyl-4-oxo-pyridine-3-carboxylic acid]
- % Inhibition relative to DMSO treatment ([1]; 0.5 μM): 0%
- % Inhibition relative to DMSO treatment ([2]; 0.5 μM): 6%
- % Inhibition relative to DMSO treatment ([3]; 0.5 μM): 76%
- % Inhibition relative to DMSO treatment ([4]; 0.5 μM): 0%

Structure (SMILES): C[C@@H](N)COc1cccc(C(=O)O)n1.Cl.Cl [Compound E, [(1R)-2-(6-carboxypyridin-1-ium-2-yl)oxy-1-methyl-ethyl]ammonium dichloride]
- % Inhibition relative to DMSO treatment ([1]; 200 μM): 0%
- % Inhibition relative to DMSO treatment ([2]; 200 μM): 15%
- % Inhibition relative to DMSO treatment ([3]; 200 μM): 74%
- % Inhibition relative to DMSO treatment ([4]; 200 μM): 28%

Structure (SMILES): CCOC(=O)c1nn(-c2ccc3c(c2)OC(F)(F)C(F)(F)O3)c2cccc(C(C)=O)c2c1=O [Compound A, ethyl 5-acetyl-4-oxo-1-(2,2,3,3-tetrafluoro-1,4-benzodioxin-6-yl)cinnoline-3-carboxylate]
- % Inhibition relative to DMSO treatment ([1]; 25 μM): 0%
- % Inhibition relative to DMSO treatment ([2]; 25 μM): 7%
- % Inhibition relative to DMSO treatment ([3]; 25 μM): 0%
- % Inhibition relative to DMSO treatment ([4]; 25 μM): 0%

Structure (SMILES): CCn1c(-c2ccc(Cl)c(Cl)c2)c(C(=O)O)c(=O)c2cc(F)ccc21 [Compound M, 2-(3,4-dichlorophenyl)-1-ethyl-6-fluoro-4-oxo-quinoline-3-carboxylic acid]
- % Inhibition relative to DMSO treatment ([1]; 0.5 μM): 0%
- % Inhibition relative to DMSO treatment ([2]; 0.5 μM): 11%
- % Inhibition relative to DMSO treatment ([3]; 0.5 μM): 1%
- % Inhibition relative to DMSO treatment ([4]; 0.5 μM): 0%

Structure (SMILES): CC(O)C(N)CCCCC(=O)O.Cl (stereo not shown) [Compound B, [5-carboxy-1-(1-hydroxyethyl)pentyl]ammonium chloride]
- % Inhibition relative to DMSO treatment ([1]; 200 μM): 0%
- % Inhibition relative to DMSO treatment ([2]; 200 μM): 15%
- % Inhibition relative to DMSO treatment ([3]; 200 μM): 50%
- % Inhibition relative to DMSO treatment ([4]; 200 μM): 12%

Structure (SMILES): CCn1c(Cn2ccc(C(F)(F)F)n2)cc(=O)c(C(=O)O)c1-c1ccc(Cl)c(Cl)c1 [Compound L, 2-(3,4-dichlorophenyl)-1-ethyl-4-oxo-6-[[3-(trifluoromethyl)pyrazol-1-yl]methyl]pyridine-3-carboxylic acid]
- % Inhibition relative to DMSO treatment ([1]; 0.5 μM): 0%
- % Inhibition relative to DMSO treatment ([1]; 31 μM): 16%
- % Inhibition relative to DMSO treatment ([1]; 500 μM): 34%
- % Inhibition relative to DMSO treatment ([2]; 0.5 μM): 9%
- % Inhibition relative to DMSO treatment ([2]; 31 μM): 0%
- % Inhibition relative to DMSO treatment ([2]; 500 μM): 23%
- % Inhibition relative to DMSO treatment ([3]; 0.5 μM): 0%
- % Inhibition relative to DMSO treatment ([3]; 31 μM): 0%
- % Inhibition relative to DMSO treatment ([3]; 500 μM): 16%
- % Inhibition relative to DMSO treatment ([4]; 0.5 μM): 11%

Structure (SMILES): CCn1c(C)c(-c2ccc(F)cc2F)c(=O)c(C(=O)O)c1-c1ccc(Cl)c(Cl)c1 [Compound C, 2-(3,4-dichlorophenyl)-5-(2,4-difluorophenyl)-1-ethyl-6-methyl-4-oxo-pyridine-3-carboxylic acid]
- % Inhibition relative to DMSO treatment ([1]; 0.5 μM): 0%
- % Inhibition relative to DMSO treatment ([2]; 0.5 μM): 11%
- % Inhibition relative to DMSO treatment ([3]; 0.5 μM): 0%
- % Inhibition relative to DMSO treatment ([4]; 0.5 μM): 12%
